Read-outs that look alike come from different tables or passages of the source. Residues, ends and D or L forms follow the SMILES beside them. *: point of attachment. Cbz = O=C(OCc1ccccc1)*
What was measured:
[1] = tested on: xFANCD2-Ub (FANCD2 monoubiquitylation); assay: Xenopus cell-free FA pathway assay: DNA substrate-induced xFANCD2 monoubiquitylation (immunoblot, densitometry); format: biochemical, Xenopus laevis; settings: for IC50: plasmid-activated Xenopus extracts, Fig. 7B, read-out: xFANCD2-Ub inhibition IC50; for activity against xFANCD2-Ub in Xenopus extracts: activated Xenopus extracts, serial dilutions up to 3000 μM
Method: (§1) A series of monoketone analogs of curcumin [18] was evaluated in Xenopus egg extracts where DNA substrate-induced xFANCD2-Ub is used as a readout of FA pathway performance. Phosphorylation of MRE11 (MRE11-P), a member of the MRN DNA damage repair pathway was monitored to assess the cross-specificity of the compounds. For each compound, IC50 values were determined from serial dilution experiments and densitometry analysis of immunoblots.
(§2) IC50 values were determined using immunoblots of plasmid-activated extracts treated with a range of concentrations for each compound (0, 10, 25, 60, 150, 400, 1000, 3000 μM). A representative experiment is shown (out of 3 repeats). B) Structure of curcumin and monoketone analogs. […] Activated extracts were treated with 1 mM each compound and phosphorylation of RPA32 and H2AX monitored by immunoblot.
(§3) Preparation of Xenopus laevis low-speed extracts and the FA pathway assay were described previously.
(§4) Fitted curves were determined from experimental data using IgorPro. The concentration of compound that induces 50% inhibition of the measured endpoint (i.e. FANCD2 ubiquitylation, Mre11 phosphorylation and cell survival) was then plotted on the fitted curve.

hFANCD2-Ub in HeLa cells = assay: hFANCD2 ubiquitylation assay in hydroxyurea-treated HeLa cells (immunoblot, densitometry); format: cell-based, human; settings: Homo sapiens; HeLa cells co-treated with hydroxyurea; read-out: hFANCD2-Ub inhibition IC50
Method: We next determined whether EF24 could inhibit hFANCD2-Ub in human cells. Curcumin was tested in parallel to assess whether activity difference observed in extracts are mirrored in cells. HeLa cells were co-treated with increasing concentrations of compounds and hydroxyurea (HU), a standard method to stimulate hFANCD2-Ub (Fig. 4A, lanes 1-2, 7-8, [30]).
A) Hydroxyurea-induced FANCD2-Ub in HeLa cells is inhibited by EF24 at lower concentrations than curcumin. hFANCD2-Ub was monitored by immunoblot and densitometry analysis to determine IC50. B) Hydroxyurea-induced hFANCD2 foci formation is inhibited by EF24. hFANCD2 foci were detected by immunofluorescence and the percentage of cells with more than 5 foci was determined for each treatment. Histograms represent the average of 3 experiments. Error bars represent standard deviation.
hFANCD2 ubiquitylation assay and immunofluorescence assays in HeLa cells have been described elsewhere.
as §4

[2] = tested on: ubiquitin isopeptidase/deubiquitinase (DUB); design: method as in PMID 16982768; settings: cited from earlier work
proteasome [3] = tested on: proteasome; design: method as in PMID 16982768; settings: cited from earlier work
309ATM KO cells = assay: Survival assay (MTS), ATM KO mouse kidney cells; format: cell-based; settings: for sensitivity of 309ATM KO cells compared to 334ATM WT cells: 72 hrs survival, KO vs WT; for IC50: 309ATM KO cells, 72 hrs, MTS, read-out: cell survival IC50 KO
Text: (§5) To test this possibility, we compared the effects of curcumin and EF24 in an ATM KO mouse kidney cell line (309ATM KO) and its isogenic, wild type counterpart (334ATM WT). As expected from ATM deficiency, 309ATM KO cells were more sensitive to ionizing irradiation than 334ATM WT (Additional File 1 - Fig. S3). We next treated these cell lines with various concentrations of EF24 and measured their survival after 72 hrs.
(§6) Figure 6 EF24 but not curcumin or DRB is more toxic to ATM-deficient mouse kidney cells than wild-type cells. A) 309ATM KO and 334ATM WT cells were treated with various concentrations of EF24. Cell viability was measured after 3 days by MTS assay. Each point represents the mean of 3 repeats. Error bars represent standard deviation. B) Similar experiment was performed using curcumin.
(§7) HSC72OT and HSC72OT+A cells were seeded at 5,000 per well in 96-well plates, and treated 24 hrs later with various concentrations of compounds or DMSO (1 μl in 100 μl medium). 309ATM KO and 334ATM WT cells were seeded at 7,000 per well and treated immediately. Cell survival was measured after 3 days using the CellTiter 96 AQueous One Solution Cell Proliferation Assay (Promega) following the recommendations from the manufacturer. All experiments were done in triplicate.
as §4

334ATM WT cells = assay: Survival assay (MTS), ATM wild-type mouse kidney cells; format: cell-based; settings: 72 hrs, read-out: cell survival IC50 WT
Text: as §5, §6, §7, §4

proteasome [4] = assay: Proteasome assay in Xenopus extracts, both activities taken together; format: biochemical, Xenopus laevis; settings: caspase-like and chymotrypsin-like activities
Text: The proteasome is required for the monoubiquitylation of xFANCD2 in cells. As curcumin has proteasome inhibiton activities, we tested whether EF24 inhibits xFANCD2-Ub by this mechanism. Two proteasome activities (caspase-like and chymotrypsin-like) along with xFANCD2-Ub status were monitored in activated Xenopus extracts treated with various compounds (Fig. 2A).
Proteasome activities and xFANCD2-Ub were monitored using fluorogenic probes and immunoblotting, respectively. IC50 values were determined for each compound using a range of concentrations and represented in histogram graphs. For MG132, numbers above caspase-like and chymotrypsin-like histograms indicate the actual IC50 values. A representative experiment is shown (out of 3 repeats).
Fluorogenic peptides (Proteasome Substrate Pack #PW9905) specific for the chymotrypsin-like and caspase-like activities of the proteasome were incubated in Xenopus extracts treated with serial dilutions of various compounds. Fluorescence emitted by proteasome cleavage of the peptides was monitored using a fluorometer (FluoStar Galaxy, BMG Labtech) with 380 nm and 460 nm excitation and emission filters, respectively. Experiments were repeated at least twice.

[5] = tested on: xMRE11-P (MRE11 phosphorylation); assay: MRE11 phosphorylation in activated Xenopus extracts (immunoblot); format: biochemical, Xenopus laevis
Method: as §1, §2, §3, §4

[6] = tested on: IKK-2 (IKKβ) vs IKK-1 (IKKα); settings: cited from earlier work
[7] = tested on: IKK (IκB-α stabilization); assay: IκB-α accumulation in Xenopus extracts as readout of IKK inhibition (immunoblot); format: biochemical, Xenopus laevis; settings: Xenopus extracts prepared without cycloheximide, Fig. 3A/3B
Method: We tested whether EF24 inhibits IKK activity in Xenopus extracts by monitoring the accumulation of the IKK target, IκB-α (Fig. 3A). Because IκB-α phosphorylation by IKK leads to its degradation by the ubiquitin-proteasome pathway, inhibition of IKK results in the accumulation of IκB-α. For this experiment, we used extracts prepared without cycloheximide to allow for de novo translation of IκB-α.
Extracts treated as indicated were analyzed by immunoblot using xFANCD2, IκB-α and tubulin-α antibodies. IκB-α protein level was used as readout for monitoring IKK inhibition. […] Experiment was performed as in (A). The structure of BMS-345541 is shown. The star denotes a non-specific band used as loading control.

O=C1/C(=C/c2ccc([N+](=O)[O-])cc2)CS(=O)(=O)C/C1=C\c1ccc([N+](=O)[O-])cc1 [4H-TTD, 4H-Thiopyran-4-one, tetrahydro-3,5-bis [(4-nitrophenyl)methylene]-,1,1-dioxide]
IC50 [1]: 250 µM | IC50 (hFANCD2-Ub in HeLa cells): 0.12 µM | ubiquitin isopeptidase/deubiquitinase (DUB) inhibition [2]: exhibited ubiquitin isopeptidase/deubiquitinase (DUB) inhibition activity | proteasome activity (proteasome [3]): did not inhibit proteasome activity | overall cell toxicity concentration relative to EF24 (309ATM KO cells; 309ATM KO and 334ATM WT survival assay): about 10 times | sensitivity of 309ATM KO cells compared to 334ATM WT cells (309ATM KO cells): 3 fold | IC50 (309ATM KO cells; Mus musculus): 0.18 µM | IC50 (334ATM WT cells; Mus musculus): 0.5 µM

CC(C)(C)OC(=O)N1C/C(=C\c2ccccc2F)C(=O)/C(=C/c2ccccc2F)C1 [0616-104]
activity against xFANCD2-Ub in Xenopus extracts [1]: non-detectable levels

NC1C/C(=C\c2ccccc2F)C(=O)/C(=C/c2ccccc2F)C1 (stereo not shown) [0810-117]
activity against xFANCD2-Ub in Xenopus extracts [1]: non-detectable levels | proteasome inhibition (proteasome [4]): weak inhibitory activities against both the proteasome and xFANCD2-Ub

O=C1/C(=C/c2ccccn2)CSC/C1=C\c1ccccn1 [0821-120A]
activity against xFANCD2-Ub in Xenopus extracts [1]: drops the activity only slightly

O=C1/C(=C/c2ccccn2)COC/C1=C\c1ccccn1 [0822-3]
activity against xFANCD2-Ub in Xenopus extracts [1]: only weakly active

O=C1/C(=C/c2ccccc2F)COC/C1=C\c1ccccc1F [AS153-2]
activity against xFANCD2-Ub in Xenopus extracts [1]: undetectable levels

O=C1/C(=C/c2cccc(F)c2)CNC/C1=C\c1cccc(F)c1 [AS153-4]
activity against xFANCD2-Ub in Xenopus extracts [1]: strong activity against xFANCD2-Ub | fold less active than curcumin for proteasome inhibition (proteasome [4]): 20 fold

O=C1/C(=C/c2ccc(F)cc2)CNC/C1=C\c1ccc(F)cc1 [AS153-5]
activity against xFANCD2-Ub in Xenopus extracts [1]: much more potent than the corresponding thio-pyran analog

Cc1ccc2nc(NCCN)c3ncc(C)n3c2c1 [BMS-345541, reference compound]
effect on xMRE11 phosphorylation [5]: MRE11 phosphorylation was inhibited | EC50 ([1]; Xenopus extracts prepared without cycloheximide, Fig. 3A/3B, read-out: xFANCD2-Ub inhibition EC50): 970 µM | fold more active on IKK-2 (IKKβ) than on IKK-1 (IKKα) [6]: 10 fold | EC50 [7]: 280 µM

OC[C@H]1O[C@@H](n2cnc3cc(Cl)c(Cl)cc32)[C@H](O)[C@@H]1O [DRB, reference compound]
activity against xFANCD2-Ub in Xenopus extracts [1]: no effect on the FA pathway in Xenopus extracts | IC50 (309ATM KO cells): 56 µM | IC50 (334ATM WT cells): 60 µM

O=C1/C(=C/c2ccccn2)CNC/C1=C\c1ccccn1 [EF31]
activity against xFANCD2-Ub in Xenopus extracts [1]: strong activity against xFANCD2-Ub | fold less active than curcumin for proteasome inhibition (proteasome [4]): 20 fold

CC(C)C[C@@H](C=O)NC(=O)[C@H](CC(C)C)NC(=O)[C@H](CC(C)C)NC(=O)OCc1ccccc1 [MG132, reference compound] (Cbz-Leu-Leu-Leu-aldehyde)
activity against xFANCD2-Ub in Xenopus extracts [1]: only a weak activity on xFANCD2-Ub | proteasome inhibition (proteasome [4]): efficiently inhibited both proteasome activities

COc1cc(/C=C/C(=O)CC(=O)/C=C/c2ccc(O)c(OC)c2)ccc1O [curcumin]
activity against xFANCD2-Ub in Xenopus extracts [1]: only a weak activity on xFANCD2-Ub | IC50 [1]: > 2000 µM | IC50 (hFANCD2-Ub in HeLa cells): 15 µM | proteasome inhibition (proteasome [4]): efficiently inhibited both proteasome activities | sensitivity of 309ATM KO cells compared to 334ATM WT cells (309ATM KO cells): slightly more resistant | IC50 (309ATM KO cells; Mus musculus): 23 µM | IC50 (334ATM WT cells; Mus musculus): 17 µM

CO[C@H]([C@H](O)CC(=O)[C@@H](C)[C@@H](O)CC[C@@H](C)[C@@H]1O[C@]2(CC[C@@H](C)[C@H](CC[C@H](C)C(C)=O)O2)CC[C@@H]1C)[C@H](OC(=O)C[C@@H](O)C1=C(C)C(=O)OC1=O)C(C)C [tautomycin, reference compound]
effect on xMRE11 phosphorylation [5]: accumulation of xMRE11-P | activity against xFANCD2-Ub in Xenopus extracts [1]: no detectable effect on xFANCD2-Ub
